According to US8063048B2, “Acetylenyl-pyrazolo-pyrimidine derivatives” (Hoffmann-La Roche Inc., priority 2005, dated 2011):

Row | melting point [°C] | SMILES
1 | 162 | CCOc1cccc(-c2cc(C(F)F)n3ncc(C#Cc4ccc(N)nc4)c3n2)c1 [Example 208, 5-[7-Difluoromethyl-5-(3-ethoxy-phenyl)-pyrazolo[1,5-a]pyrimidin-3-ylethynyl]-pyridin-2-ylamine]
2 | 149 to 150 | O=S(=O)(NCCO)c1cc(C#Cc2cnn3c(C(F)F)cc(-c4ccc(C(F)(F)F)cc4)nc23)c(F)cc1F [Example 135, 5-[7-Difluoromethyl-5-(4-trifluoromethyl-phenyl)-pyrazolo[1,5-a]pyrimidin-3-ylethynyl]-2,4-difluoro-N-(2-hydroxy-ethyl)-benzenesulfonamide]
3 | 254 | NS(=O)(=O)c1ccc(C#Cc2cnn3c(C(F)F)cc(-c4ccc(C(F)(F)F)cc4)nc23)cc1 [Example 49, 4-[7-Difluoromethyl-5-(4-trifluoromethyl-phenyl)-pyrazolo[1,5-a]pyrimidin-3-ylethynyl]-benzenesulfonamide]
4 | 166 to 168 | COc1ccc(C#Cc2cnn3c(C(F)(F)F)cc(-c4ccc(C(F)(F)F)cc4)nc23)cn1 [Example 56, 3-(6-Methoxy-pyridin-3-ylethynyl)-7-trifluoromethyl-5-(4-trifluoromethyl-phenyl)-pyrazolo[1,5-a]pyrimidine]
5 | 230 | Nc1ncc(C#Cc2cnn3c(C(F)(F)F)cc(-c4ccc(C(F)(F)F)cc4)nc23)cc1C(F)(F)F [Example 222, 3-Trifluoromethyl-5-[7-trifluoromethyl-5-(4-trifluoromethyl-phenyl)-pyrazolo[1,5-a]pyrimidin-3-ylethynyl]-pyridin-2-ylamine]
6 | 191 | Cc1cc(-c2cc(C(F)F)n3ncc(C#Cc4ccc(S(=O)(=O)N5CCN(C)CC5)s4)c3n2)ccc1Cl [Example 255, 5-(4-Chloro-3-methyl-phenyl)-7-difluoromethyl-3-[5-(4-methyl-piperazine-1-sulfonyl)-thiophen-2-ylethynyl]-pyrazolo[1,5-a]pyrimidine]
7 | 231 to 232 | NS(=O)(=O)c1ccc(C#Cc2cnn3c(C(F)(F)F)cc(-c4ccc(Cl)c(Cl)c4)nc23)s1 [Example 89, 5-[5-(3,4-Dichloro-phenyl)-7-trifluoromethyl-pyrazolo[1,5-a]pyrimidin-3-ylethynyl]-thiophene-2-sulfonic acid amide]
8 | 197 | CN(C)CCNS(=O)(=O)c1ccc(C#Cc2cnn3c(C(F)(F)F)cc(-c4cccc(C(F)(F)F)c4)nc23)s1 [Example 251, 5-[7-Trifluoromethyl-5-(3-trifluoromethyl-phenyl)-pyrazolo[1,5-a]pyrimidin-3-ylethynyl]-thiophene-2-sulfonic acid (2-dimethylamino-ethyl)-amide]
9 | 170 | CN(C)CCNS(=O)(=O)c1ccc(C#Cc2cnn3c(C(F)F)cc(-c4cccc(C(F)(F)F)c4)nc23)s1 [Example 250, 5-[7-Difluoromethyl-5-(3-trifluoromethyl-phenyl)-pyrazolo[1,5-a]pyrimidin-3-ylethynyl]-thiophene-2-sulfonic acid (2-dimethylamino-ethyl)-amide]
10 | 204 to 206 | CC(CO)(CO)NS(=O)(=O)c1cncc(C#Cc2cnn3c(C4CC4)cc(-c4ccc(Cl)cc4)nc23)c1 [Example 68, 5-[5-(4-Chloro-phenyl)-7-cyclopropyl-pyrazolo[1,5-a]pyrimidin-3-ylethynyl]-pyridine-3-sulfonic acid (2-hydroxy-1-hydroxymethyl-1-methyl-ethyl)-amide]
11 | 132 | CC(C)(CO)NS(=O)(=O)c1cccc(C#Cc2cnn3c(C(F)(F)F)cc(-c4cccc(C(F)(F)F)c4)nc23)c1 [Example 107, N-(2-Hydroxy-1,1-dimethyl-ethyl)-3-[7-trifluoromethyl-5-(3-trifluoromethyl-phenyl)-pyrazolo[1,5-a]pyrimidin-3-ylethynyl]-benzenesulfonamide]
12 | 282 | NS(=O)(=O)c1ccc(C#Cc2ncn3c(C(F)F)cc(-c4ccc(C(F)(F)F)cc4)nc23)cc1 [Example 276, 4-[4-Difluoromethyl-2-(4-trifluoromethyl-phenyl)-imidazo[1,5-a]pyrimidin-8-ylethynyl]-benzenesulfonamide]
13 | 246 | Nc1ccc(C#Cc2cnc3c(C4CC4)cc(-c4ccc(Cl)cc4)cn23)cn1 [Example 233, 5-[6-(4-Chloro-phenyl)-8-cyclopropyl-imidazo[1,2-a]pyridin-3-ylethynyl]-pyridin-2-ylamine]
14 | 215 | O=S(=O)(Nc1ccncc1)c1ccc(C#Cc2cnn3c(C(F)F)cc(-c4ccc(C(F)(F)F)cc4)nc23)s1 [Example 282, 5-[7-Difluoromethyl-5-(4-trifluoromethyl-phenyl)-pyrazolo[1,5-a]pyrimidin-3-ylethynyl]-thiophene-2-sulfonic acid pyridin-4-ylamide]
15 | 231 to 233 | CNS(=O)(=O)c1ccc(C#Cc2cnn3c(C(F)(F)F)cc(-c4ccc(C(F)(F)F)cc4)nc23)cc1 [Example 123, N-Methyl-4-[7-trifluoromethyl-5-(4-trifluoromethyl-phenyl)-pyrazolo[1,5-a]pyrimidin-3-ylethynyl]-benzenesulfonamide]
16 | 202 to 203 | CC(C)(CO)NS(=O)(=O)c1cnc(C#Cc2cnc3c(C(F)(F)F)cc(-c4ccc(C(F)(F)F)cc4)cn23)s1 [Example 196, 2-[8-Trifluoromethyl-6-(4-trifluoromethyl-phenyl)-imidazo[1,2-a]pyridin-3-ylethynyl]-thiazole-5-sulfonic acid (2-hydroxy-1,1-dimethyl-ethyl)-amide]
17 | 226 to 229 | CC(C)(CO)NS(=O)(=O)c1cccc(C#Cc2cnn3c(C(F)(F)F)cc(-c4ccc(Cl)cc4)nc23)c1 [Example 95, 3-[5-(4-Chloro-phenyl)-7-trifluoromethyl-pyrazolo[1,5-a]pyrimidin-3-ylethynyl]-N-(2-hydroxy-1,1-dimethyl-ethyl)-benzenesulfonamide]
18 | 169 to 170 | FC(F)(F)c1ccc(-c2cc(C(F)(F)F)c3ncc(C#Cc4cccnc4)n3c2)cc1 [Example 190, 3-Pyridin-3-ylethynyl-8-trifluoromethyl-6-(4-trifluoromethyl-phenyl)-imidazo[1,2-a]pyridine]
19 | 276 to 277 | NS(=O)(=O)c1cncc(C#Cc2cnn3c(C4CC4)cc(-c4ccc(C(F)(F)F)cc4)nc23)c1 [Example 79, 5-[7-Cyclopropyl-5-(4-trifluoromethyl-phenyl)-pyrazolo[1,5-a]pyrimidin-3-ylethynyl]-pyridine-3-sulfonic acid amide]
20 | 272 to 275 | NS(=O)(=O)c1cc(C#Cc2cnn3c(C4CC4)cc(-c4ccc(Cl)cc4)nc23)c(F)cc1F [Example 70, 5-[5-(4-Chloro-phenyl)-7-cyclopropyl-pyrazolo[1,5-a]pyrimidin-3-ylethynyl]-2,4-difluoro-benzenesulfonamide]
21 | 200 | Nc1cnc(C#Cc2cnn3c(C(F)(F)F)cc(-c4ccc(C(F)(F)F)cc4)nc23)cn1 [Example 286, 5-[7-Trifluoromethyl-5-(4-trifluoromethyl-phenyl)-pyrazolo[1,5-a]pyrimidin-3-ylethynyl]-pyrazin-2-ylamine]
22 | 279 to 280 | Nc1ncc(C#Cc2cnc3c(F)cc(-c4ccc(Cl)cc4)cn23)cn1 [Example 242, 5-[6-(4-Chloro-phenyl)-8-fluoro-imidazo[1,2-a]pyridin-3-ylethynyl]-pyrimidin-2-ylamine]
